Laboratory results as given in ChEMBL document CHEMBL1201862, “PubChem BioAssay data set” (2004).
Activity calls are given as the source filed them.

Tests used:
cells [1] = type: functional, cell-based
[2] = molecular target: FAD-linked sulfhydryl oxidase ALR (Homo sapiens, UniProt P55789); test: inhibitors of human ALR sulfhydryl oxidase, dose response, biochemical, H2O2 detection, luminescence, cherry-pick (AID 493248)
cells [3] = type: functional, cell-based; remark: listed apart in the source
Large T antigen = Large T antigen (Simian virus 40, UniProt P03070); type: functional, Betapolyomavirus macacae;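 note: Confirmatory-stage PubChem screen for compounds that inhibit SV40 T antigen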
Large T antigen, sequence (P03070 whole entry): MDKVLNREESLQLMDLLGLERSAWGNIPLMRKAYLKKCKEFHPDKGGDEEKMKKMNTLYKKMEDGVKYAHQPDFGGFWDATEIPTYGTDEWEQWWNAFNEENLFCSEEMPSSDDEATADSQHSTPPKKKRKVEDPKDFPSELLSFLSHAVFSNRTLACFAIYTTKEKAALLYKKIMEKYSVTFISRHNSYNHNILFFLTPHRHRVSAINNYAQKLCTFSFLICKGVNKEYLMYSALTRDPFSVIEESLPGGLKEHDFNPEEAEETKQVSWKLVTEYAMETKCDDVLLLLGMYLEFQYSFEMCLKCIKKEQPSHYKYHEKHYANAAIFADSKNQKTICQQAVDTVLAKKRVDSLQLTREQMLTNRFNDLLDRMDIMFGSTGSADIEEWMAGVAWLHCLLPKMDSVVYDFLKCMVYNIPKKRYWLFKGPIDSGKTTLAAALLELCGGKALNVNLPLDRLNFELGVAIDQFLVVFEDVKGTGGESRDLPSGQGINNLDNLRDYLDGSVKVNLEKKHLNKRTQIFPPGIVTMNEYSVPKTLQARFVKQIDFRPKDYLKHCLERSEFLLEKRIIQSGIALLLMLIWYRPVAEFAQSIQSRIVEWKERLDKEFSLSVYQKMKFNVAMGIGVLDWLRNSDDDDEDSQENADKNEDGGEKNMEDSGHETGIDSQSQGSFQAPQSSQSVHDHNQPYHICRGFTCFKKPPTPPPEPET

[4] = THP-1 cell cytotoxicity, dose response, cytotoxicity control for non-replicating M. tuberculosis project (AID 489025); type: functional
Nonstructural protein 1 = Nonstructural protein 1 (Influenza A virus, UniProt Q194T2); type: functional, Influenza A virus (A/California/07/2009(H1N1))
Nonstructural protein 1, sequence (Q194T2 whole entry): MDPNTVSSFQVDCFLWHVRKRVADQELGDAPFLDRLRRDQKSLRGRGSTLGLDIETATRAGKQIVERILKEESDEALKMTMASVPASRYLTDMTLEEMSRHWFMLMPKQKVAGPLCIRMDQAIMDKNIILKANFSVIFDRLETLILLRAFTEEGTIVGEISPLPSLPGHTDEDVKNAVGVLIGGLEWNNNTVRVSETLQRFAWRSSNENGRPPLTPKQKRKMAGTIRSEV

[5] = inhibitors of SNCA 5'UTR-driven reporter translation, confirmation, H4 neuroglioma cells, luminescence (AID 1988); type: functional, cell-based
[6] = Luminescence Cell-Based Dose Response HTS to Identify Inhibitors of 5'UTR Stem-Loop Driven Prion Protein mRNA Translation in H4 Neuroglioblastoma Cells. [Related pubchem assays: 1827 (Project Summary), 1813 (Primary HTS)]; type: functional
[7] = Vero E6 cell cytotoxicity, dose response, cytotoxicity control for non-replicating M. tuberculosis project, secondary assay (AID 492998); type: functional, VeroE6; details: Vero C1008
[8] = inhibitors of firefly luciferase expression or activity, dose response, H4 neuroglioma cells, luminescence (AID 1990); type: functional, cell-based
cells [9] = type: functional
[10] = molecular target: T1, Rac GTPase-activating protein 1 (Homo sapiens, UniProt Q9H0H5); test: MgcRacGAP GTPase-activating activity inhibitors, confirmation, biochemical, ADP Hunter fluorescence, primary and confirmatory (AID 624330); type: functional
T1 sequence (Q9H0H5 whole entry): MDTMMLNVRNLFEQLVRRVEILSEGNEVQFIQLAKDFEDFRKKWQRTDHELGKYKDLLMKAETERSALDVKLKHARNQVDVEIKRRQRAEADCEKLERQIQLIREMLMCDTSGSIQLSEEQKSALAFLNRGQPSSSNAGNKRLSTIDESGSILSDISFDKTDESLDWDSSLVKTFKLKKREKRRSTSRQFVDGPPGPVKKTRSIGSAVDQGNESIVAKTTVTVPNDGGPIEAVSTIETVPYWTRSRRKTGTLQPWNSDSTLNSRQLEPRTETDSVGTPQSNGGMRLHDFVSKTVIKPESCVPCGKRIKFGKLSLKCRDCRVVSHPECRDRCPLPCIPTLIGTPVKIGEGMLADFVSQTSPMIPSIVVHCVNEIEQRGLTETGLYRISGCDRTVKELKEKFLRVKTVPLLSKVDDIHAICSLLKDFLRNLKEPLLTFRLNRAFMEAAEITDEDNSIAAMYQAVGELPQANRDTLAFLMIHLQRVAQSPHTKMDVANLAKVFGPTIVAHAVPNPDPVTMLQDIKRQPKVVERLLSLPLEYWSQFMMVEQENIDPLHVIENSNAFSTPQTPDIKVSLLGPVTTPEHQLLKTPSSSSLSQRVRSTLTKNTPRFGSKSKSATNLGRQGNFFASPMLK

[11] = molecular target: DNA dC->dU-editing enzyme APOBEC-3G (Homo sapiens, UniProt Q9HC16); test: Dose Response confirmation of small molecule APOBEC3G DNA Deaminase Inhibitors via a fluorescence-based single-stranded DNA deaminase assay. [Related pubchem assays (depositor defined):AID493012, AID493028]; type: functional
DNA dC->dU-editing enzyme APOBEC-3G, sequence (Q9HC16 whole entry): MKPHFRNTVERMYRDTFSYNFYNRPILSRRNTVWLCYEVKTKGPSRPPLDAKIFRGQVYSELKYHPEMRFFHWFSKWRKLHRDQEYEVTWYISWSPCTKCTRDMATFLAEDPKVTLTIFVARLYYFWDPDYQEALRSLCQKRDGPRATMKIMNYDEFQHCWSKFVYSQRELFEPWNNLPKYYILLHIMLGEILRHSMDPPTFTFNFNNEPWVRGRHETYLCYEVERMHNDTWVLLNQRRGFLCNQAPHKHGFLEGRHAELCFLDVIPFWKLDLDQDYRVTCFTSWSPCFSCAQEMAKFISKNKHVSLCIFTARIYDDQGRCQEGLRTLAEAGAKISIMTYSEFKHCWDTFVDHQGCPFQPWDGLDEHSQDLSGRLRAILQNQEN

Cytochrome P450 3A4 = Cytochrome P450 3A4 (Homo sapiens, UniProt P08684); details: Potency;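 note: confirmatory qHTS run detecting inhibitors and substrates of CYP3A4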
Cytochrome P450 3A4, sequence (P08684 whole entry): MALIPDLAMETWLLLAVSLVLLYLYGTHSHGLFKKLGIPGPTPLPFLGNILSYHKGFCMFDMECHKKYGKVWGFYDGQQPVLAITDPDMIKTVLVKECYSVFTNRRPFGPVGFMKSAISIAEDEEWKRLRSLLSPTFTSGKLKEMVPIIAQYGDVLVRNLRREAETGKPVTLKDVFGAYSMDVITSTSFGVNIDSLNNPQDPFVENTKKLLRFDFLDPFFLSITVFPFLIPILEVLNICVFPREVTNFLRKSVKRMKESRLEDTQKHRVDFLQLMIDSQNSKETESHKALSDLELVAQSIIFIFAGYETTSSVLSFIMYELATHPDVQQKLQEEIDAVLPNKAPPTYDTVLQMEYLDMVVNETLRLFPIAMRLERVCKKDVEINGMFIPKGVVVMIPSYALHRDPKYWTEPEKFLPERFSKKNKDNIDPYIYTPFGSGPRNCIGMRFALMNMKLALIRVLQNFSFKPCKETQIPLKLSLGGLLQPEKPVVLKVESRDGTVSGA

[12] = molecular target: T2, Alkaline phosphatase, tissue-nonspecific isozyme (Homo sapiens, UniProt P05186); test: human TNAP enzyme inhibitors, SAR follow-up, biochemical, luminescent, dose response (AID 1056)
T2 sequence (P05186 whole entry): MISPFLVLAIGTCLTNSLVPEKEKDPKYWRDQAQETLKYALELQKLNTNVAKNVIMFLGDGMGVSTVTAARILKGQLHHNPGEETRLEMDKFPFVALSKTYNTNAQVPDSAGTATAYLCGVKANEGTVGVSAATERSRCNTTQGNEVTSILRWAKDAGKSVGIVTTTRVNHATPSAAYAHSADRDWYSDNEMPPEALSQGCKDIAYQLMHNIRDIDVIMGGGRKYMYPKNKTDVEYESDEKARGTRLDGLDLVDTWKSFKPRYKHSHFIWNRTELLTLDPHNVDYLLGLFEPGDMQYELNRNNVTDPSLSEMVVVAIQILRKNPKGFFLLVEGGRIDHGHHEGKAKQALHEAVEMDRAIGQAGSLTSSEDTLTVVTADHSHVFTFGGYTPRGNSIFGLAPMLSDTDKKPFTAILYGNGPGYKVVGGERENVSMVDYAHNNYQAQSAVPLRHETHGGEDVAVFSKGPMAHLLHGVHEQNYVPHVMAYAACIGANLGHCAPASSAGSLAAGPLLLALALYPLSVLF

[13] = molecular target: Glyceraldehyde-3-phosphate dehydrogenase (Homo sapiens, UniProt P04406)
Glyceraldehyde-3-phosphate dehydrogenase, sequence (P04406 whole entry): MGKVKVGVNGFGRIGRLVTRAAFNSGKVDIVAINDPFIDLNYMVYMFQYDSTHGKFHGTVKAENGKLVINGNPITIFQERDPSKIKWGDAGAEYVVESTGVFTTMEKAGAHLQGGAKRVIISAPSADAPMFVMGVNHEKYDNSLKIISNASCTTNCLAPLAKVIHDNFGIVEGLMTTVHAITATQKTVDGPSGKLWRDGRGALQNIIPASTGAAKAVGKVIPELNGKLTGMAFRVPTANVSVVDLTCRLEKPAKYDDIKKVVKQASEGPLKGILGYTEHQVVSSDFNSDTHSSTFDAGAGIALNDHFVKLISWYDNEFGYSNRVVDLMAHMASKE

[14] = HepG2 cell cytotoxicity, dose response, cytotoxicity control, plate reader, dry powder samples (AID 1159569); type: functional, cell-based;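 note: inhibitor potency with signal falling toward the positive control level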
[15] = HepG2 cell cytotoxicity, dose response, cytotoxicity control, cherry-picked samples (AID 1159577); type: functional, cell-based
[16] = P. falciparum 3D7-ScDHODH growth inhibitors, dose response, SYBR Green, dry powder samples (AID 1159570); type: functional, cell-based;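 note: parasite growth measured after 72 hours of compound exposure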
[17] = P. falciparum Dd2 growth inhibitors, dose response, SYBR Green, cherry-picked samples (AID 1159567); type: functional, cell-based
[18] = P. falciparum Dd2 growth inhibitors, dose response, SYBR Green, dry powder samples (AID 1159566); type: functional, cell-based;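 note: potency for growth inhibition with lower SYBR green DNA signal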
[19] = P. falciparum ATP4 D1247Y mutant growth inhibitors, dose response, NITD609-resistant line, SYBR Green, dry powder (AID 1159571); type: functional, cell-based;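 note: parasites synchronized at ring stage by sorbitol before testing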
[20] = tested on: Streptococcus sp. 'group A'; test: growth inhibition of control SK(-) GAS strain, dose response, counter-screen for streptokinase expression inhibitor project, luminescence, kanamycin, BacTiterGlo, confirmation (AID 1900); type: functional, organism-based
[21] = molecular target: T3, Short transient receptor potential channel 4 (Mus musculus, UniProt Q9QUQ5); test: mouse TRPC4 channel inhibitors, dose response, cell-based, HEK293 TRPC4/mu-opioid, Fluo-4 calcium (AID 434942); type: functional;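 note: potency of inhibitors blocking the TRPC4 calcium response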
T3 sequence (Q9QUQ5 whole entry): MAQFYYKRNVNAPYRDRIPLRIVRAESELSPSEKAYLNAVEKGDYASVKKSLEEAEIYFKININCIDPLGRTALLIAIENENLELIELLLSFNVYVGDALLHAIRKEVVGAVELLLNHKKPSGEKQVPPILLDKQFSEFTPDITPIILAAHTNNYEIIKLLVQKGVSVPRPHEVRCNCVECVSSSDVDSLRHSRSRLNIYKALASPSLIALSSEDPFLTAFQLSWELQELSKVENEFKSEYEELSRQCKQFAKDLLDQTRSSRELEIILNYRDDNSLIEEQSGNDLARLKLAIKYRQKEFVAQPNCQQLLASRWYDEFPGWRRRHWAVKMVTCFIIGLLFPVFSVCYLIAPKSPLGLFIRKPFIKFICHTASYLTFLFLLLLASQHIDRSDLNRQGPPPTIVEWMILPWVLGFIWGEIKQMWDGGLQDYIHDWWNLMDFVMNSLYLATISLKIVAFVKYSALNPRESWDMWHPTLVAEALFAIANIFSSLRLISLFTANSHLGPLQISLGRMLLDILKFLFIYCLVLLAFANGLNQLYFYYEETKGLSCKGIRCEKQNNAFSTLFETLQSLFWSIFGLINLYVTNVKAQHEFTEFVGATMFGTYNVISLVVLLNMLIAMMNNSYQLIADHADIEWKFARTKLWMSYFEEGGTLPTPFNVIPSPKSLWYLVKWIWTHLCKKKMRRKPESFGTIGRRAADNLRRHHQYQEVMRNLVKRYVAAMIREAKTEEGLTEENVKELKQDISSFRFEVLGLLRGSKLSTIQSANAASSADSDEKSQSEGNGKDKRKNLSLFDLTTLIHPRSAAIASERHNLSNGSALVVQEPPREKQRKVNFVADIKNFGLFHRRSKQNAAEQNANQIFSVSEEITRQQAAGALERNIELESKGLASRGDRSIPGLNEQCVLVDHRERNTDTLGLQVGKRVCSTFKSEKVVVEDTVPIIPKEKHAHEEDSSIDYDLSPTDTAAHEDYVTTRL

[22] = microbe, parasite or virus in culture; type: functional; details: Mycobacterium tuberculosis
[23] = NIH-3T3 fibroblast cytotoxicity, dose response, cytotoxicity control, cell-based, fluorescence, Alamar Blue, secondary assay (AID 2327); type: functional;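 note: NIH-3T3 mouse fibroblasts cultured with fluconazole at 8 µg/mL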
Vero [24] = test: cells; type: functional, cell-based; details: Chlorocebus sabaeus
Streptococcus = test: Group A Streptococcus viability loss, dose response, counter-screen for streptokinase expression inhibitor project, luminescence, BacTiterGlo (AID 1915); type: functional, organism-based;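 note: potency for reduction of bacterial viability or growth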
[25] = molecular target: T3, Short transient receptor potential channel 4; test: mouse TRPC4 channel activators, dose response, cell-based, HEK293 TRPC4/mu-opioid, Fluo-4 calcium (AID 434937); type: functional
Vero [26] = test: cells; type: functional; details: Chlorocebus sabaeus
[27] = C. albicans growth with fluconazole, confirmation, fluorescence, retest (AID 2467); type: functional, cell-based
[28] = molecular target: Glucose-6-phosphate 1-dehydrogenase (Homo sapiens, UniProt P11413); test: human G6PD enzyme inhibitors, dose response, selectivity assay for P. falciparum G6PD inhibitor project, biochemical, fluorescence (AID 504792); type: functional
Glucose-6-phosphate 1-dehydrogenase, sequence (P11413 whole entry): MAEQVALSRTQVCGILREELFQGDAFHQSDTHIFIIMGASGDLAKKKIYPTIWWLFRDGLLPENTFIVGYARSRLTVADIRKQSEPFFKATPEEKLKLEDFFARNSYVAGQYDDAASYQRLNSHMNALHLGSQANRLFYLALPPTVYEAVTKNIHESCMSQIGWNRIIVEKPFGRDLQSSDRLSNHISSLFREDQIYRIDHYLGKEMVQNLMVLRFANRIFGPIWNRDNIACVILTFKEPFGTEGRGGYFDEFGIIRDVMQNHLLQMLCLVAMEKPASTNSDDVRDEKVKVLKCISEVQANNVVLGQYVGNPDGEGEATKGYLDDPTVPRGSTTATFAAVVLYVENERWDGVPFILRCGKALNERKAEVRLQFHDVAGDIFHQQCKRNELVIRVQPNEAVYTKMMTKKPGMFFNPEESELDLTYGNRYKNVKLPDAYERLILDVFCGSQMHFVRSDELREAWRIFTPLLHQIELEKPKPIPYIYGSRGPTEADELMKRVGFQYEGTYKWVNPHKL

[29] = molecular target: T4, Heat shock factor protein 1 (Mus musculus, UniProt P38532); test: inhibition of MG132-induced HSE-luciferase signal, confirmation, cell-based, NIH3T3, luminescence, dose retest (AID 2382); type: functional;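 note: NIH3T3 fibroblasts with HSF1-driven luciferase reporter stressed by proteasome inhibitor MG132; luminescence from HSF1-driven luciferase expression after 8 hours of MG132 stress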
T4 sequence (P38532 whole entry): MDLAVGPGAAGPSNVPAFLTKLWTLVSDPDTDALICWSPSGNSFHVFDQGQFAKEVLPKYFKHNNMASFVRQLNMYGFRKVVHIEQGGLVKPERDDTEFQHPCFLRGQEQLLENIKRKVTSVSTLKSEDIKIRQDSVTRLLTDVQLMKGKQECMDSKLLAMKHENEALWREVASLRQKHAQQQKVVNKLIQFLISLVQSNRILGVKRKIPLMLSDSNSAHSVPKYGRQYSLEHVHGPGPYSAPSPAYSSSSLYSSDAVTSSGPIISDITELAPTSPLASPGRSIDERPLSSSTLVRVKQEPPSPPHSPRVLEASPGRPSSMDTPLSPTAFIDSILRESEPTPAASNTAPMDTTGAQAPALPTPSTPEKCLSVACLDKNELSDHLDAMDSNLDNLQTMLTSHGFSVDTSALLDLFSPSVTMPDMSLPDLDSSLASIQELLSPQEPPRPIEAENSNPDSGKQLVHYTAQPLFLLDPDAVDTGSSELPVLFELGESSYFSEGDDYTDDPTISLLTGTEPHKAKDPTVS

FAD-linked sulfhydryl oxidase ALR, sequence (P55789 whole entry): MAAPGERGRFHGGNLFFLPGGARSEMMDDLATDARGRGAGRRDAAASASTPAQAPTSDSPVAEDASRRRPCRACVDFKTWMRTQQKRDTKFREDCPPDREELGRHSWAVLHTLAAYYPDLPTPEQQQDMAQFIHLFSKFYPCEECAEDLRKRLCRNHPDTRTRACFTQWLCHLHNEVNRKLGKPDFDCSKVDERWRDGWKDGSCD

Cc1ccccc1Nc1c(-c2ccccn2)nc2ccccn12
EC50 (cells [1]): 221 µM (active) | AC50 [2]: 1.37 µM (active) | EC50 (cells [3]): > 350 µM (not active) | IC50 (Large T antigen): < 0.39 µM (active) | CC50 [4]: 13.7 µM (active) | IC50 (Nonstructural protein 1): 14.7 µM (active) | EC50 [5]: 10.5 µM (active) | EC50 [6]: 10.4 µM (active) | CC50 [7]: 3.7 µM (active) | EC50 [8]: 11 µM (active) | IC50 (cells [9]): 1.75 µM (active)

O=S(=O)(N=S1CC=CCN1S(=O)(=O)c1ccccc1)c1ccccc1 (stereo not given)
IC50 [10]: 105 µM (active) | AC50 [2]: 2.19 µM (active) | IC50 [11]: 2.32 µM (active)

CC1C(=O)OC2C1CC[C@@]1(C)C=CC(=O)[C@@]3(C)O[C@@]213 (stereo not given in full)
AC50 (Cytochrome P450 3A4): 39.8 µM (inconclusive)

O=C(O)c1cc(-c2ccc3c(c2)OCCO3)n[nH]1
IC50 [12]: 49.8 µM (active) | IC50 [13]: > 100 µM (not active)

COc1ccc2c3c([nH]c2c1)[C@H](CO)N(Cc1ccc(Cl)cc1)CC31CCN(Cc2nccs2)CC1
AC50 [14]: 25.8 µM (active) | AC50 [15]: > 39 µM (inactive) | AC50 [16]: 1.22 µM (active) | AC50 [17]: 1.22 µM (active) | AC50 [18]: 0.781 µM (active) | AC50 [19]: 1.11 µM (active)

CC(C)(C)c1ccc(C(=O)NC(=S)NNC(=O)COc2ccccc2)cc1
EC50 [20]: 0.067 µM (active) | EC50 [21]: 6.68 µM (active) | CC50 [22]: 34.1 µM (active) | EC50 [23]: > 150 µM (inactive) | IC50 (Vero [24]): 23 µM (active) | EC50 (Streptococcus): 1.76 µM (active) | EC50 [25]: 5.96 µM (active) | CC50 (Vero [26]): > 25 µM (active) | EC50 [27]: 1.58 µM (active)

c1cnc(-c2cccnc2)nc1
IC50 [12]: > 100 µM (inactive) | IC50 [13]: > 100 µM (not active)

COc1cccc(Cn2c(Oc3ccccc3)nc3c2c(=O)n(C)c(=O)n3C)c1
EC50 [21]: 7.5 µM (active)

COC(=O)[C@H](CCSC)NC(=O)c1cc2c3ccccc3nc-2c[nH]1
IC50 [28]: > 80 µM (inactive) | IC50 [11]: 59.6 µM (active)

O=C(N/N=C/c1cc([N+](=O)[O-])ccc1O)C12CC3CC(CC(C3)C1)C2
CC50 [4]: 21 µM (active) | CC50 [7]: > 20 µM (active) | IC50 (cells [9]): 16.3 µM (active)

Cn1c(N)c(C(=O)COC(=O)c2cc(C(F)(F)F)nc3ccccc23)c(=O)n(Cc2ccccc2)c1=O
AC50 (Cytochrome P450 3A4): 15.8 µM (inconclusive)

O=c1c2ccccc2[nH]c(=S)n1Cc1cccnc1
EC50 [21]: 3.35 µM (active) | EC50 [25]: 2.66 µM (active)

CN(CC(=O)NC1CCCc2ccccc21)C1CCCCC1 (stereo not given)
EC50 [21]: 13.3 µM (active)

CCn1cnc(-c2cccnc2)c1
IC50 [12]: > 100 µM (inactive) | IC50 [13]: > 100 µM (not active)

COc1ccccc1NC(=O)c1ccc([N+](=O)[O-])o1
CC50 [4]: 17.5 µM (active) | EC50 [29]: > 195 µM (not active) | CC50 [7]: 5.96 µM (active) | IC50 (cells [9]): 9.55 µM (active)
